Results from PMC4054929 (Bioorganic & medicinal chemistry, 2014).
“And” between values parts separate entries of the source, which are not always exact repeats. Equal values may be shown once.

What was measured:
[1] = biological target: PDE10A (Rattus norvegicus, UniProt Q9QYJ6); conditions: for Distribution, blood, MP-10 block / Distribution, cerebellum, MP-10 block / Distribution, fat, MP-10 block / Distribution, heart, MP-10 block / Distribution, kidney, MP-10 block / Distribution, liver, MP-10 block / Distribution, lung, MP-10 block / Distribution, muscle, MP-10 block / Distribution, striatum, MP-10 block / Distribution, total brain, MP-10 block: rats pretreated with MP-10 2.0 mg/kg 5 min prior to tracer; for striatal binding after blocking dose of MP-10: MP-10 2 mg/kg i.v. 5 min prior to tracer, p < 0.05
[2] = In vivo biodistribution and regional brain uptake in rats; conditions: for Biodistribution, blood / Biodistribution, cerebellum / Biodistribution, fat / Biodistribution, heart / Biodistribution, kidney / Biodistribution, liver / Biodistribution, lung / Biodistribution, muscle / Biodistribution, striatum / Biodistribution, total brain: male SD rats, i.v.
[3] = test system: PDE10A; conditions: NHP brain

Sequence of PDE10A (Rattus norvegicus, UniProt Q9QYJ6) (Q9QYJ6 whole entry): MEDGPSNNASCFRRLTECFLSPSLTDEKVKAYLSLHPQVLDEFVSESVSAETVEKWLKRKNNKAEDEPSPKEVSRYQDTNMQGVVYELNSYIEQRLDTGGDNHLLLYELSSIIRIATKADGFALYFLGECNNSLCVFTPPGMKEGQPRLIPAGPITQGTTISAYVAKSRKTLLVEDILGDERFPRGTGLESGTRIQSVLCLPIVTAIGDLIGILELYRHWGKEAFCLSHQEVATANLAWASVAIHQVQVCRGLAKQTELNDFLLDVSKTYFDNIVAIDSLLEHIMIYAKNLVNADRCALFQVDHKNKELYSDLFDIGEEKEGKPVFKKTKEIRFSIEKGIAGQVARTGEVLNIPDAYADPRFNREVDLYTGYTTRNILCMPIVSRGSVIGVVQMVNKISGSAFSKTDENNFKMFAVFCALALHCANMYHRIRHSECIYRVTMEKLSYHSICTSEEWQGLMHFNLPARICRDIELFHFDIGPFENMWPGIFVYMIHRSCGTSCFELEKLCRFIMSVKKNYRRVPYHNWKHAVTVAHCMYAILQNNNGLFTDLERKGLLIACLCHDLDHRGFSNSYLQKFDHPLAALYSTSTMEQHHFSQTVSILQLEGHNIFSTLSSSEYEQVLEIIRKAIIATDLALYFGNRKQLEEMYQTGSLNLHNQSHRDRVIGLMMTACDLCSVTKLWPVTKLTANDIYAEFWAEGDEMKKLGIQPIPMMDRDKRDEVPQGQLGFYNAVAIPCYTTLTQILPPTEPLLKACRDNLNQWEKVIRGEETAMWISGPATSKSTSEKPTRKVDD

## Cn1cc(-c2ccncc2)c(-c2ccc(OCc3nc4ccccc4cc3O[11CH3])cc2)n1 [[^11C]1, 3-(methoxy-^11C)-2-((4-(1-methyl-4-(pyridin-4-yl)-1H-pyrazol-3-yl)phenoxy)methyl)quinoline]
[1]; 30 min p.i.
  Distribution, blood, MP-10 block: 0.407 ± 0.026 %ID/gram
  Distribution, cerebellum, MP-10 block: 0.119 ± 0.006 %ID/gram
  Distribution, fat, MP-10 block: 1.353 ± 0.202 %ID/gram
  Distribution, heart, MP-10 block: 0.340 ± 0.036 %ID/gram
  Distribution, kidney, MP-10 block: 1.523 ± 0.162 %ID/gram
  Distribution, liver, MP-10 block: 5.781 ± 0.696 %ID/gram
  Distribution, lung, MP-10 block: 0.404 ± 0.024 %ID/gram
  Distribution, muscle, MP-10 block: 0.257 ± 0.026 %ID/gram
  Distribution, striatum, MP-10 block: 0.294 ± 0.013 %ID/gram
  Distribution, total brain, MP-10 block: 0.128 ± 0.003 %ID/gram
[1]; rats, MP-10 2 mg/kg 5 min prior to tracer, 30 min p.i.
  decrease of striatum: cerebellum ratio by MP-10 pretreatment: 50%
[1]; rats
  striatal binding after blocking dose of MP-10: significant reduction
[2]; 5 min p.i.
  Biodistribution, blood: 0.679 ± 0.116 %ID/gram
  Biodistribution, cerebellum: 0.229 ± 0.039 %ID/gram
  Biodistribution, fat: 0.935 ± 0.462 %ID/gram
  Biodistribution, heart: 0.733 ± 0.039 %ID/gram
  Biodistribution, kidney: 4.354 ± 0.473 %ID/gram
  Biodistribution, liver: 11.005 ± 0.758 %ID/gram
  Biodistribution, lung: 1.602 ± 0.509 %ID/gram
  Biodistribution, muscle: 0.412 ± 0.064 %ID/gram
  Biodistribution, striatum: 0.488 ± 0.101 ^a %ID/gram
  Biodistribution, total brain: 0.231 ± 0.038 %ID/gram
[2]; 30 min p.i. (control)
  Biodistribution, blood: 0.321 ± 0.021 %ID/gram
  Biodistribution, cerebellum: 0.097 ± 0.016 %ID/gram
  Biodistribution, fat: 0.851 ± 0.314 %ID/gram
  Biodistribution, heart: 0.296 ± 0.038 %ID/gram
  Biodistribution, kidney: 1.647 ± 0.459 %ID/gram
  Biodistribution, liver: 7.345 ± 1.472 %ID/gram
  Biodistribution, lung: 0.408 ± 0.083 %ID/gram
  Biodistribution, muscle: 0.244 ± 0.073 %ID/gram
  Biodistribution, striatum: 0.452 ± 0.086 ^a %ID/gram and 0.452 ± 0.086 %ID/gram
  Biodistribution, total brain: 0.133 ± 0.024 %ID/gram
[2]; 60 min p.i.
  Biodistribution, blood: 0.275 ± 0.028 %ID/gram
  Biodistribution, cerebellum: 0.064 ± 0.006 %ID/gram
  Biodistribution, fat: 0.500 ± 0.087 %ID/gram
  Biodistribution, heart: 0.199 ± 0.013 %ID/gram
  Biodistribution, kidney: 1.275 ± 0.141 %ID/gram
  Biodistribution, liver: 6.398 ± 0.945 %ID/gram
  Biodistribution, lung: 0.299 ± 0.042 %ID/gram
  Biodistribution, muscle: 0.142 ± 0.014 %ID/gram
  Biodistribution, striatum: 0.380 ± 0.048 ^a %ID/gram
  Biodistribution, total brain: 0.095 ± 0.008 %ID/gram
[3]
  blood–brain-barrier penetration: readily penetrate the blood–brain-barrier

## Cn1cc(-c2ccncc2)c(-c2ccc(OCc3cc(O[11CH3])c4ccccc4n3)cc2)n1 [[^11C]2, 4-(methoxy-^11C)-2-((4-(1-methyl-4-(pyridin-4-yl)-1H-pyrazol-3-yl)phenoxy)methyl)quinoline]
[1]; 30 min p.i.
  Distribution, blood, MP-10 block: 0.343 ± 0.007 %ID/gram
  Distribution, cerebellum, MP-10 block: 0.112 ± 0.011 %ID/gram
  Distribution, fat, MP-10 block: 0.697 ± 0.219 %ID/gram
  Distribution, heart, MP-10 block: 0.310 ± 0.040 %ID/gram
  Distribution, kidney, MP-10 block: 1.072 ± 0.069 %ID/gram
  Distribution, liver, MP-10 block: 4.723 ± 0.489 %ID/gram
  Distribution, lung, MP-10 block: 0.362 ± 0.021 %ID/gram
  Distribution, muscle, MP-10 block: 0.224 ± 0.012 %ID/gram
  Distribution, striatum, MP-10 block: 0.175 ± 0.022 %ID/gram
  Distribution, total brain, MP-10 block: 0.114 ± 0.007 %ID/gram
[1]; rats
  striatal binding after blocking dose of MP-10: significant reduction
[2]; SD rats, 60 min p.i.
  striatum: cerebellum ratio: 2.5 fold
[2]; 5 min p.i.
  Biodistribution, blood: 0.268 ± 0.053 %ID/gram
  Biodistribution, cerebellum: 0.215 ± 0.031 %ID/gram
  Biodistribution, fat: 0.242 ± 0.065 %ID/gram
  Biodistribution, heart: 0.464 ± 0.023 %ID/gram
  Biodistribution, kidney: 2.340 ± 0.295 %ID/gram
  Biodistribution, liver: 7.080 ± 0.435 %ID/gram
  Biodistribution, lung: 0.890 ± 0.206 %ID/gram
  Biodistribution, muscle: 0.258 ± 0.035 %ID/gram
  Biodistribution, striatum: 0.352 ± 0.052 ^a %ID/gram
  Biodistribution, total brain: 0.210 ± 0.035 %ID/gram
[2]; 30 min p.i. (control)
  Biodistribution, blood: 0.192 ± 0.075 %ID/gram
  Biodistribution, cerebellum: 0.066 ± 0.023 %ID/gram
  Biodistribution, fat: 0.371 ± 0.091 %ID/gram
  Biodistribution, heart: 0.187 ± 0.042 %ID/gram
  Biodistribution, kidney: 1.294 ± 0.268 %ID/gram
  Biodistribution, liver: 10.085 ± 1.972 %ID/gram
  Biodistribution, lung: 0.233 ± 0.045 %ID/gram
  Biodistribution, muscle: 0.133 ± 0.035 %ID/gram
  Biodistribution, striatum: 0.230 ± 0.030 ^a %ID/gram and 0.230 ± 0.030 %ID/gram
  Biodistribution, total brain: 0.087 ± 0.016 %ID/gram
[2]; 60 min p.i.
  Biodistribution, blood: 0.152 ± 0.030 %ID/gram
  Biodistribution, cerebellum: 0.046 ± 0.014 %ID/gram
  Biodistribution, fat: 0.278 ± 0.040 %ID/gram
  Biodistribution, heart: 0.121 ± 0.025 %ID/gram
  Biodistribution, kidney: 0.758 ± 0.112 %ID/gram
  Biodistribution, lung: 0.163 ± 0.027 %ID/gram
  Biodistribution, muscle: 0.084 ± 0.013 %ID/gram
  Biodistribution, striatum: 0.201 ± 0.037 ^a %ID/gram
  Biodistribution, total brain: 0.057 ± 0.008 %ID/gram
[3]
  blood–brain-barrier penetration: readily penetrate the blood–brain-barrier

## Cn1cc(-c2ccncc2)c(-c2ccc(OCc3ccc4cc(O[11CH3])ccc4n3)cc2)n1 [[^11C]3, 6-(methoxy-^11C)-2-((4-(1-methyl-4-(pyridin-4-yl)-1H-pyrazol-3-yl)phenoxy)methyl)quinoline]
[2]; 5 min p.i.
  Biodistribution, blood: 0.282 ± 0.025 %ID/gram
  Biodistribution, cerebellum: 0.251 ± 0.031 %ID/gram
  Biodistribution, fat: 0.139 ± 0.038 %ID/gram
  Biodistribution, heart: 0.416 ± 0.026 %ID/gram
  Biodistribution, kidney: 1.333 ± 0.282 %ID/gram
  Biodistribution, liver: 5.357 ± 0.989 %ID/gram
  Biodistribution, lung: 0.744 ± 0.241 %ID/gram
  Biodistribution, muscle: 0.151 ± 0.027 %ID/gram
  Biodistribution, striatum: 0.293 ± 0.075 ^b %ID/gram
  Biodistribution, total brain: 0.249 ± 0.037 %ID/gram
[2]; 30 min p.i. (control)
  Biodistribution, blood: 0.275 ± 0.041 %ID/gram
  Biodistribution, cerebellum: 0.090 ± 0.018 %ID/gram
  Biodistribution, fat: 0.221 ± 0.060 %ID/gram
  Biodistribution, heart: 0.264 ± 0.032 %ID/gram
  Biodistribution, kidney: 0.883 ± 0.123 %ID/gram
  Biodistribution, liver: 3.172 ± 0.606 %ID/gram
  Biodistribution, lung: 0.389 ± 0.082 %ID/gram
  Biodistribution, muscle: 0.175 ± 0.009 %ID/gram
  Biodistribution, striatum: 0.160 ± 0.023 ^a %ID/gram
  Biodistribution, total brain: 0.105 ± 0.011 %ID/gram
[2]; 60 min p.i.
  Biodistribution, blood: 0.210 ± 0.023 %ID/gram
  Biodistribution, cerebellum: 0.066 ± 0.008 %ID/gram
  Biodistribution, fat: 0.135 ± 0.026 %ID/gram
  Biodistribution, heart: 0.182 ± 0.020 %ID/gram
  Biodistribution, kidney: 0.637 ± 0.052 %ID/gram
  Biodistribution, liver: 1.724 ± 0.510 %ID/gram
  Biodistribution, lung: 0.249 ± 0.015 %ID/gram
  Biodistribution, muscle: 0.129 ± 0.006 %ID/gram
  Biodistribution, striatum: 0.089 ± 0.014 ^a %ID/gram
  Biodistribution, total brain: 0.074 ± 0.005 %ID/gram

## Cn1ncc(-c2ccncc2)c1-c1ccc(OCc2cc(O[11CH3])c3ccccc3n2)cc1 [[^11C]4, 4-(methoxy-^11C)-2-((4-(1-methyl-4-(pyridin-4-yl)-1H-pyrazol-5-yl)phenoxy)methyl)quinoline]
[2]; 5 min p.i.
  Biodistribution, blood: 0.099 ± 0.015 %ID/gram
  Biodistribution, cerebellum: 0.094 ± 0.017 %ID/gram
  Biodistribution, fat: 0.066 ± 0.016 %ID/gram
  Biodistribution, heart: 0.335 ± 0.026 %ID/gram
  Biodistribution, kidney: 1.744 ± 0.316 %ID/gram
  Biodistribution, liver: 3.312 ± 0.494 %ID/gram
  Biodistribution, lung: 0.643 ± 0.196 %ID/gram
  Biodistribution, muscle: 0.146 ± 0.027 %ID/gram
  Biodistribution, striatum: 0.151 ± 0.033 ^a %ID/gram
  Biodistribution, total brain: 0.091 ± 0.017 %ID/gram
[2]; 30 min p.i. (control)
  Biodistribution, blood: 0.067 ± 0.006 %ID/gram
  Biodistribution, cerebellum: 0.024 ± 0.007 %ID/gram
  Biodistribution, fat: 0.139 ± 0.027 %ID/gram
  Biodistribution, heart: 0.132 ± 0.019 %ID/gram
  Biodistribution, kidney: 0.645 ± 0.088 %ID/gram
  Biodistribution, liver: 4.430 ± 0.481 %ID/gram
  Biodistribution, lung: 0.156 ± 0.020 %ID/gram
  Biodistribution, muscle: 0.093 ± 0.010 %ID/gram
  Biodistribution, striatum: 0.083 ± 0.010 ^a %ID/gram
  Biodistribution, total brain: 0.025 ± 0.004 %ID/gram
[2]; 60 min p.i.
  Biodistribution, blood: 0.067 ± 0.011 %ID/gram
  Biodistribution, cerebellum: 0.015 ± 0.003 %ID/gram
  Biodistribution, fat: 0.139 ± 0.058 %ID/gram
  Biodistribution, heart: 0.103 ± 0.012 %ID/gram
  Biodistribution, kidney: 0.575 ± 0.075 %ID/gram
  Biodistribution, liver: 4.588 ± 0.577 %ID/gram
  Biodistribution, lung: 0.107 ± 0.016 %ID/gram
  Biodistribution, muscle: 0.052 ± 0.009 %ID/gram
  Biodistribution, striatum: 0.037 ± 0.004 ^a %ID/gram
  Biodistribution, total brain: 0.015 ± 0.002 %ID/gram
